# Experimental data reported in patent US20030186352A1, “Apicomplexan chorismate synthase sequences and an inhibitor of the shikimate pathway” (priority 1998, published 2003).
# What was measured:
# [1] = test system: C. parvum; test: C. parvum infection of MDBKF5D2 cell monolayers, immunofluorescence assay at 48 hours; assay type: cell-based, Cryptosporidium parvum; conditions: for approximate 95% Cl count (mean parasite count per field): media alone ~1800
# Procedure: C. parvum oocysts at 50,000/well were incubated at 37° C. (8% CO2) on confluent MDBKF5D2 cell monolayers in 96 well microtiter plates with the following concentrations of each drug. […] The level of infection of each well was determined and analyzed by an immunofluorescence assay at 48 hours using an antibody to C. parvum sporozoites made in rabbits at a concentration of 0.1%. Fluorescein-conjugated goat anti-rabbit antibody was used at a concentration of 1%.
# C. parvum oocysts at 50,000/well were incubated with each drug (PRM=paromomycin which is the positive control, NPMG, gabaculine, SHAM, 8-hydroxyquinoline) at 37° C. (8% carbon dioxide) on confluent MDBKF5D2 cell monolayers in 96 well microtiter plates. The level of infection of each well was determined and analyzed by an immunofluorescence assay at 48 hours using as an antibody C. parvum sporozoite rabbit anti-serum (0.1%), and using fluorescein-conjugated goat anti-rabbit antibody (1%). Data are expressed as mean parasite count/field when 16 fields counted at 10× magnification “s.d. of the mean” (FIG. 6).
# [2] = test system: T. gondii tachyzoites (RH strain); test: T. gondii growth inhibition in HFF monolayers, tritiated uracil uptake; assay type: cell-based, Toxoplasma gondii
# Procedure: The improvements are based on microscopic visual imspection of infected and inhibitor treated cultures, and on quantitation of nucleic acid synthesis of the parasite by measure intake of ^3H uracil onto the parasite's nucleic acid. Uracil is not utilized by mammalian cells. […] Only the RH strain tachyzoites, cultured for up to 72 hours, had been used in previously reported assays. The use of Me49, Ptg, and R5 mutant are unique aspects of the methods used in these assays in this invention.
# (§1) In these assays toxicity of a candidate inhibitor was assessed by its ability to prevent growth of human foreskin fibroblasts (HFF) after 4 days and after 8 days as measured by tritiated thymidine uptake and microscopic evaluation. Confluent monolayers of HFF were infected with tachyzoites and bradyzoites. Inhibitor was added one hour later. Non-toxic doses were used in parasite growth inhibition assays. Parasite growth was measured by ability to incorporate tritiated uracil during the last 18 hours of culture.
# (§2) First the toxicity of gabaculine was assessed by its ability to prevent growth of human foreskin fibroblasts (HFF) as measured by ^3H-thymidine uptake and microscopic evaluation. Non-toxic doses were used in parasite growth inhibition assays. in vitro parasite growth inhibition assays included confluent monolayers of HFF infected with tachyzoites (RH) or mutant Me49 (R5). Gabaculine was added 1 hour later. Parasite growth was measured by the ability to incorporate 3H-uracil during the last 18 hours of culture. In addition, parasite growth was evaluated microscopically in Giemsa stained slides.
# Confluent monolayers of HFF cells, grown in 96-well plates are infected with T. gondii tachyzoites of the RH strain and serial dilutions of anti-microbial compound are applied 1 hour later. T. gondii growth is assessed in these cultures by their ability to incorporate tritiated uracil (2.5 μCi/well) added during the last 18 hours of culture. After harvesting cells with an automatic cell harvester, uracil incorporation is measured by liquid scintillation.
# [3] = test system: EPSP synthase; test: T. gondii EPSP synthase enzyme assay (HPLC detection of EPSP); assay type: biochemical; conditions: 1 mM
# Procedure: Assays for 4-aminobenzoate and 4-amino-4-deoxychorismate are performed as described previously.” Enzyme Assays: The 5-enolpyruvylshikimate-3-phosphate (EPSP) synthase assay entailed monitoring the generation of EPSP using HPLC. Reaction components were separated using a Hypersil H3APS2 HPLC column (Hichrom Limited, Reading, UK) and a NaH2PO4 elution gradient (50-400 mM). UV spectra (200-300 nm) of the colume eluate were collected to identify eluants. […] The peaks at 215 nm were integrated; the EPSP produced was quantified using a standard curve of authentic EPSP. Parasite extracts were produced at 4° C. by suspension of pure tachyzoites in extraction buffer (50 mM Tris.HCl, pH 7.5, containing complete TM protease inhibitor cocktail [Boehringer Mannheim, 1 tablet per 50 ml buffer]), sonication 3 times for 3 seconds at 30 second intervals, and centrifugation at 12000 g for 15 min. The resulting supernatant was diluted 6-fold with extraction buffer and loaded onto a ResourceQ column (1 ml, Pharmacia) equilibrated with extraction buffer. The bound protein was eluted in a single step using extraction buffer containing 500 mM Kcl. The eluted material was used for enzyme assay. The assay mix contained 1 mM phosphoenolpyruvate, 1 mM SP and 50 mM HEPES, pH 7.5. […] Protein concentrations of lysates were determined using the Lowry method. […]
# [4] = test system: W2 clone of Plasmodium falciparum; test: P. falciparum in vitro growth assay (Milhous et al.), W2 clone; assay type: cell-based; conditions: Plasmodium falciparum, W2
# [5] = test system: D6 clone of Plasmodium falciparum; test: P. falciparum in vitro growth assay (Milhous et al.), D6 clone; assay type: cell-based; conditions: Plasmodium falciparum, D6 clone
# [6] = test system: P. falciparum; test: P. falciparum in vitro growth assay, clone not stated; assay type: cell-based, Plasmodium falciparum
# Procedure: This assay is performed in folate deficient RPMI 1640 over a 66 hour incubation in plasma as described by Milhous et al. (1985). Both the W2 clone DHFR resistant phenotype and the D6 clone are used (Odula et al., 1988) (Table 3).
# [7] = test system: human foreskin fibroblasts (HFF); test: Toxicity to human foreskin fibroblasts, tritiated thymidine uptake and microscopy; assay type: cell-based; conditions: similar concentrations (20 mM)
# Procedure: as §1, §2
# Inhibitor compounds are tested over a range of concentrations for toxicity against mammalian cells by assessing their ability to prevent cell growth as measured by tritiated thymidine uptake and inspection of the monolayer using microscopic evaluation. […]
# [8] = test system: mutant R5 strain of T. gondii; test: Growth of mutant R5 strain of T. gondii in HFF, uracil uptake over 8 days; assay type: cell-based, Toxoplasma gondii; conditions: 20 mM gabaculine or P/S, 8 days in culture
# Procedure: Improvements were developed in the assays reported by Mack et al. (1984) and Holfels et al. (1994) to measure T. gondii replication in tissue culture. The improvements are based on microscopic visual imspection of infected and inhibitor treated cultures, and on quantitation of nucleic acid synthesis of the parasite by measure intake of ^3H uracil onto the parasite's nucleic acid. Uracil is not utilized by mammalian cells. […]
# First the toxicity of gabaculine was assessed by its ability to prevent growth of human foreskin fibroblasts (HFF) as measured by ^3H-thymidine uptake and microscopic evaluation. […] Parasite growth was measured by the ability to incorporate 3H-uracil during the last 18 hours of culture. In addition, parasite growth was evaluated microscopically in Giemsa stained slides.
# This mutant strain is atovaquone resistant and posseses certain characterisitics of the tachyzoite stage and certain characteristics of the bradyzoite stage. T. gondii growth is measure by their ability to incorporate tritiated uracil and is expressed as counts/minute (CPM) on the Y-axis. […]
structure (smiles),measurement,setting,value
"O=C(O)CNCP(=O)(O)O [NPMG, N-(phosphonomethyl) glycine]",product rescue by PABA of NPMG effect on C. parvum,[1],not abrogated by PABA
same,approximate 95% Cl count (mean parasite count per field),[1]; NPMG 0.45 μg/ml,~1200 count/field
same,approximate 95% Cl count (mean parasite count per field),[1]; NPMG 4.5 μg/ml,~900 count/field
same,approximate 95% Cl count (mean parasite count per field),[1]; NPMG 0.045,~1200 count/field
same,restriction of CPM (tritiated uracil incorporation),"[2]; NPMG 3.12 mM, 4 day assay, medium around 72,000",around 60%
same,counts (tritiated uracil incorporation),"[2]; NPMG 4.5 mM, 4 days, medium around 72,000, no RH around 2,000 CPM","about 12,000 CPM"
same,product rescue by PABA of NPMG inhibition of nucleic acid synthesis,[2]; PABA at increasing concentrations added to cultures,PABA abrogates the inhibitory effects
same,inhibition at 4500 µM,"[2]; Toxoplasma gondii, 96 h, NPMG 4.5 mM, 4 day assay, read-out: inhibition of parasite growth",~80%
same,inhibition of T. gondii EPSP synthase enzyme activity,[3],inhibition of EPSP synthase enzyme activity
same,IC50,[4],1.72 µg/mL
same,IC90,[4],3.4 µg/mL
same,IC50,[5]; read-out: IC 50,0.823 µg/mL
same,IC90,[5]; read-out: IC 90,2.51 µg/mL
same,product rescue of glyphosate inhibition of in vitro growth of asexual erythrocytic forms,[6]; PABA and folate,PABA and folate antagonism of growth inhibition
"NC1C=CC=C(C(=O)O)C1 (stereo not drawn) [gabaculine, 3-amino-2,3-dihydrobenzoic acid]",approximate 95% Cl count (mean parasite count per field),[1]; gabaculine 0.2 μg/ml,~1300 count/field
same,approximate 95% Cl count (mean parasite count per field),[1]; gabaculine 2 μg/ml,~600 count/field
same,approximate 95% Cl count (mean parasite count per field),[1]; gabaculine 20 μg/ml,~200 count/field
same,parasite growth over the 8 day time course,"[2]; RH, 20 mM gabaculine or P/S, uracil CPM",restricted
same,inhibition at 5000 µM,"[2]; Toxoplasma gondii, 96 h, gabaculine 5 mM, 4 days, medium about 36,000 CPM",~60%
same,restriction of CPM (tritiated uracil incorporation),"[2]; gabaculine 5 mM, 4 day assay, medium around 45,000 CPM",around 50%
same,counts (tritiated uracil incorporation),"[2]; gabaculine 20 mM, 4 days, medium around 45,000, no RH around 2,000 CPM","about 5,000 CPM"
same,toxicity to the foreskin fibroblasts,[7],no toxicity
same,period over which parasite growth was restricted,[8],"over the first 6 days of culture, after which a marked increase in parasite growth was detected"
same,IC50,[6]; Plasmodium falciparum,≥ 45 µg/mL
